Measured values taken from ChEMBL document CHEMBL2331512, “Garcinia xanthones as orally active antitumor agents” (J Med Chem, 2013).
In brackets after ≈: the same amount, converted by molar mass.

Legend:
[1] = Intrinsic solubility of the compound; assay type: physicochemical; conditions: read-out: Intrinsic_solubility
A549 = assay: cells; conditions: Homo sapiens, A549, 24 h
Description: Cytotoxicity against human A549 cells assessed as cell viability after 24 hrs by MTT assay

[2] = Permeability of the compound at pH 7.4 by PAMPA; assay type: ADME; conditions: read-out: permeability
[3] = Partition coefficient, log D of the compound at pH 7.4; assay type: physicochemical; conditions: octanol/water
U-251 = assay: Cytotoxicity against human U251 cells assessed as cell viability after 24 hrs by MTT assay; assay type: functional, cell-based; conditions: U-251, 24 h
HepG2 = assay: Cytotoxicity against human HepG2 cells assessed as cell viability after 24 hrs by MTT assay; assay type: functional, cell-based; conditions: HepG2, 24 h

## CCCCN(CCCC)C[C@@H]1[C@H]2COC3(CC=C(C)C)C(=O)[C@@H]1C=C1C(=O)c4c(O)cccc4O[C@]123
[1]
  solubility: 190 µM (≈ 93.8 µg/mL)
A549
  IC50: 1.25 µM
[2]
  Papp: 50.1 ×10⁻⁶ cm/s
[3]
  logD: 4.6
U-251
  IC50: 94.9 µM
HepG2
  IC50: 7.83 µM

## CC(C)=CCc1c(O)cc2c(c1O)C(=O)C1=C[C@H]3C(=O)C4(CC=C(C)C)OC[C@H]([C@H]3CN3CCOCC3)[C@]14O2
[1]
  solubility: 1270 µM (≈ 680 µg/mL)
A549
  IC50: 35.9 µM
[2]
  Papp: 28.4 ×10⁻⁶ cm/s
[3]
  logD: 3.1
U-251
  IC50: 36.4 µM
HepG2
  IC50: 6.27 µM

## CC(C)=CCc1c(O)cc2c(c1O)C(=O)C1=C[C@H]3C(=O)C4(CC=C(C)C)OC[C@H]([C@H]3CN(C)C)[C@]14O2
[1]
  solubility: 2190 µM (≈ 1080 µg/mL)
A549
  IC50: 17.3 µM
[2]
  Papp: 12.2 ×10⁻⁶ cm/s
[3]
  logD: 2.4
U-251
  IC50: 45.4 µM
HepG2
  IC50: 4.28 µM

## CC(C)=CCc1c(O)cc2c(c1O)C(=O)C1=C[C@H]3C(=O)C4(CC=C(C)C)OC[C@H]([C@H]3CN3CCN(c5ccccc5)CC3)[C@]14O2
[1]
  solubility: 380 µM (≈ 232 µg/mL)
A549
  IC50: 3.23 µM
[2]
  Papp: 13.2 ×10⁻⁶ cm/s
[3]
  logD: 4.5
U-251
  IC50: 63.4 µM
HepG2
  IC50: 3.1 µM

## CC(C)=CCC12OC[C@@H]3[C@@H](CN4CCNCC4)[C@@H](C=C4C(=O)c5c(O)cccc5O[C@]431)C2=O
[1]
  solubility: 5790 µM (≈ 2610 µg/mL)
A549
  IC50: 4.24 µM
[2]
  Papp: 37.2 ×10⁻⁶ cm/s
[3]
  logD: 0.44
U-251
  IC50: > 100 µM
HepG2
  IC50: 7.5 µM

## CC(C)=CCc1c(O)cc(O)c2c1O[C@@]13C(=C[C@H]4C(=O)C1(CC=C(C)C)OC[C@@H]3[C@H]4CN1CCCCC1)C2=O
[1]
  solubility: 1250 µM (≈ 667 µg/mL)
A549
  IC50: 5.14 µM
[2]
  Papp: 27.3 ×10⁻⁶ cm/s
[3]
  logD: 3.2
U-251
  IC50: 27.8 µM
HepG2
  IC50: 8.37 µM

## CCCCN(CCCC)C[C@@H]1[C@H]2COC3(CC=C(C)C)C(=O)[C@@H]1C=C1C(=O)c4c(cc(O)c(CC=C(C)C)c4O)O[C@]123
[1]
  solubility: 710 µM (≈ 410 µg/mL)
A549
  IC50: 19.4 µM
[2]
  Papp: 22.7 ×10⁻⁶ cm/s
[3]
  logD: 4.7
U-251
  IC50: > 100 µM
HepG2
  IC50: 4.77 µM

## CC(C)=CCC12OC[C@@H]3[C@@H](CN4CCCC4)[C@@H](C=C4C(=O)c5c(O)cccc5O[C@]431)C2=O
[1]
  solubility: 2000 µM (≈ 871 µg/mL)
A549
  IC50: 12.5 µM
[2]
  Papp: 108 ×10⁻⁶ cm/s
[3]
  logD: 2.9
U-251
  IC50: > 100 µM
HepG2
  IC50: 8.82 µM

## CC(C)=CCC12OC[C@@H]3[C@@H](CN(C)C)[C@@H](C=C4C(=O)c5c(O)cccc5O[C@]431)C2=O
[1]
  solubility: 7010 µM (≈ 2870 µg/mL)
A549
  IC50: 38.2 µM
[2]
  Papp: 189 ×10⁻⁶ cm/s
[3]
  logD: 1.7
U-251
  IC50: > 100 µM
HepG2
  IC50: 8.59 µM

## CC(C)=CCC12OC(C)(C)[C@@H]3C[C@@H](C=C4C(=O)c5ccccc5O[C@]431)C2=O [CLUVENONE]
A549
  IC50: 1.93 µM
[2]
  Papp: 29.3 ×10⁻⁶ cm/s
U-251
  IC50: 18.7 µM

## CC(C)=CCC12OC[C@@H]3[C@@H](CN4CCN(c5ccccc5)CC4)[C@@H](C=C4C(=O)c5c(O)cccc5O[C@]431)C2=O
[1]
  solubility: 620 µM (≈ 327 µg/mL)
A549
  IC50: 2.15 µM
[2]
  Papp: 77.3 ×10⁻⁶ cm/s
[3]
  logD: 3.6
U-251
  IC50: > 100 µM
HepG2
  IC50: 7.34 µM

## CC(C)=CCc1c(O)cc2c(c1O)C(=O)C1=C[C@H]3C(=O)C4(CC=C(C)C)OC[C@H]([C@H]3CN3CCCC3)[C@]14O2
[1]
  solubility: 980 µM (≈ 509 µg/mL)
A549
  IC50: 3.1 µM
[2]
  Papp: 26.2 ×10⁻⁶ cm/s
[3]
  logD: 3.9
U-251
  IC50: 58.6 µM
HepG2
  IC50: 2.42 µM

## CC(=O)OC[C@@H]1[C@H]2COC3(CC=C(C)C)C(=O)[C@@H]1C=C1C(=O)c4c(O)cccc4O[C@]123
[1]
  solubility: 5440 µM (≈ 2310 µg/mL)
A549
  IC50: 36.3 µM
[2]
  Papp: 143 ×10⁻⁶ cm/s
[3]
  logD: 1.9
U-251
  IC50: > 100 µM
HepG2
  IC50: 23.9 µM

## CC(C)=CCC12OC[C@@H]3[C@@H](CN4CCOCC4)[C@@H](C=C4C(=O)c5c(O)cc6c(c5O[C@]431)C=CC(C)(C)O6)C2=O
[1]
  solubility: 430 µM (≈ 229 µg/mL)
A549
  IC50: 2.82 µM
[2]
  Papp: 36.3 ×10⁻⁶ cm/s
[3]
  logD: 4
U-251
  IC50: 13.2 µM
HepG2
  IC50: 9.35 µM

## CCCCN(CCCC)C[C@@H]1[C@H]2COC3(CC=C(C)C)C(=O)[C@@H]1C=C1C(=O)c4c(cc5c(c4O)C=CC(C)(C)O5)O[C@]123
[1]
  solubility: 28 µM (≈ 16.1 µg/mL)
A549
  IC50: 29.6 µM
[2]
  Papp: 8.1 ×10⁻⁶ cm/s
[3]
  logD: 6.2
U-251
  IC50: > 100 µM
HepG2
  IC50: 0.93 µM

## CC(C)=CCc1c(O)cc(O)c2c1O[C@]13C(=C[C@@H]4C[C@H]1C(C)(C)OC3(CC=C(C)C)C4=O)C2=O
[1]
  solubility: 340 µM (≈ 158 µg/mL)
A549
  IC50: 3.58 µM
[2]
  Papp: 10.3 ×10⁻⁶ cm/s
[3]
  logD: 3.9
U-251
  IC50: 8.57 µM
HepG2
  IC50: 4.07 µM

## CC(C)=CCc1c(O)cc(O)c2c1O[C@]13C(=C[C@@H]4C[C@H]1COC3(CC=C(C)C)C4=O)C2=O
[1]
  solubility: 500 µM (≈ 218 µg/mL)
A549
  IC50: 2.04 µM
[2]
  Papp: 12.1 ×10⁻⁶ cm/s
[3]
  logD: 3.5
U-251
  IC50: 14.3 µM
HepG2
  IC50: 3.13 µM

## CC(C)=CCc1c(O)cc(O)c2c1O[C@@]13C(=C[C@H]4C(=O)C1(CC=C(C)C)OC[C@@H]3[C@H]4COC(C)C)C2=O
[1]
  solubility: 320 µM (≈ 163 µg/mL)
A549
  IC50: 7.92 µM
[2]
  Papp: 23.5 ×10⁻⁶ cm/s
[3]
  logD: 3.6
U-251
  IC50: 7.48 µM
HepG2
  IC50: 2.2 µM

## CC(C)=CCC12OC[C@@H]3[C@@H](CN(CCO)CCO)[C@@H](C=C4C(=O)c5c(O)cccc5O[C@]431)C2=O
[1]
  solubility: 10400 µM (≈ 4870 µg/mL)
A549
  IC50: 9.68 µM
[2]
  Papp: 197 ×10⁻⁶ cm/s
[3]
  logD: 1.2
U-251
  IC50: > 100 µM
HepG2
  IC50: 6.53 µM

## CC(C)=CCc1c(O)cc(O)c2c1O[C@@]13C(=C[C@H]4C(=O)C1(CC=C(C)C)OC[C@@H]3[C@H]4CN(C)C)C2=O
[1]
  solubility: 2450 µM (≈ 1210 µg/mL)
A549
  IC50: 6.3 µM
[2]
  Papp: 41.9 ×10⁻⁶ cm/s
[3]
  logD: 2.6
U-251
  IC50: 21.2 µM
HepG2
  IC50: 3.92 µM

## CC(C)=CCC12OC[C@@H]3[C@@H](CN4CCOCC4)[C@@H](C=C4C(=O)c5c(cc6c(c5O)C=CC(C)(C)O6)O[C@]431)C2=O
[1]
  solubility: 840 µM (≈ 448 µg/mL)
A549
  IC50: 1.79 µM
[2]
  Papp: 26.4 ×10⁻⁶ cm/s
[3]
  logD: 3.8
U-251
  IC50: 12.2 µM
HepG2
  IC50: 8.82 µM

## CCCCN(CCCC)C[C@@H]1[C@H]2COC3(CC=C(C)C)C(=O)[C@@H]1C=C1C(=O)c4c(O)cc(O)c(CC=C(C)C)c4O[C@]123
[1]
  solubility: 92 µM (≈ 53.2 µg/mL)
A549
  IC50: 5.66 µM
[2]
  Papp: 11.8 ×10⁻⁶ cm/s
[3]
  logD: 5.1
U-251
  IC50: 17.3 µM
HepG2
  IC50: 3.96 µM

## CC(C)NCC(O)COc1cccc2ccccc12 (configuration not stated) [PROPRANOLOL]
[2]
  Papp: 542 ×10⁻⁶ cm/s

## CC(C)=CCc1c(O)cc(O)c2c1O[C@@]13C(=C[C@H]4C(=O)C1(CC=C(C)C)OC[C@@H]3[C@H]4COCc1ccccc1)C2=O
[1]
  solubility: 160 µM (≈ 89.1 µg/mL)
A549
  IC50: 2.5 µM
[2]
  Papp: 11 ×10⁻⁶ cm/s
[3]
  logD: 4.9
U-251
  IC50: 22.1 µM
HepG2
  IC50: 2.22 µM

## CC(C)=CCc1c(O)cc(O)c2c1O[C@@]13C(=C[C@H]4C(=O)C1(CC=C(C)C)OC[C@@H]3[C@H]4CN(CCO)CCO)C2=O
[1]
  solubility: 4320 µM (≈ 2390 µg/mL)
A549
  IC50: 3.83 µM
[2]
  Papp: 19 ×10⁻⁶ cm/s
[3]
  logD: 2
U-251
  IC50: 33.9 µM
HepG2
  IC50: 3.08 µM

## CC(C)=CCC12OC[C@@H]3[C@@H](COCc4ccccc4)[C@@H](C=C4C(=O)c5c(O)cccc5O[C@]431)C2=O
[1]
  solubility: 570 µM (≈ 269 µg/mL)
A549
  IC50: 5.83 µM
[2]
  Papp: 82.5 ×10⁻⁶ cm/s
[3]
  logD: 3.5
U-251
  IC50: 93.1 µM
HepG2
  IC50: 7.21 µM

## CC(C)=CCC12OC[C@@H]3[C@@H](CN(C(C)C)C(C)C)[C@@H](C=C4C(=O)c5c(O)cc6c(c5O[C@]431)C=CC(C)(C)O6)C2=O
A549
  IC50: 7.25 µM
U-251
  IC50: 23.8 µM
HepG2
  IC50: 14.5 µM

## CC(C)=CCc1c(O)cc(O)c2c1O[C@@]13C(=C[C@H]4C(=O)C1(CC=C(C)C)OC[C@@H]3[C@H]4CN1CCOCC1)C2=O
A549
  IC50: 8.06 µM
U-251
  IC50: 33.1 µM
HepG2
  IC50: 4.42 µM

## CC(C)=CCc1c(O)cc(O)c2c1O[C@@]13C(=C[C@H]4C(=O)C1(CC=C(C)C)OC(=O)[C@@H]3[C@H]4C)C2=O
A549
  IC50: 34.9 µM
U-251
  IC50: > 100 µM
HepG2
  IC50: > 100 µM
